Results on 1 compound are retold here after US11613552B2, “Pharmaceutical agents, compositions, and methods relating thereto” (Alltech, Inc., priority 2017, dated 2023).

The subject of this assay is differentiated C2C12 cells. Briefly: Glucose uptake in differentiated C2C12 (skeletal muscle) cells. It is filed as cell-based, mouse. Here is the method: The mouse myoblast C2C12 cells were purchased from the American Type Culture Collection (ATCC, Manassas, Va.). These cells were amplified in DMEM media supplemented with 10% FBS. Equal number of C2C12 cells were then seeded on 96-well plates (5000 cells/well) and cultured in 10% FBS DMEM media at 37° C. for 5 days. Cells were replenished daily with fresh 10% FBS DMEM media. At day 5 of culture, C2C12 cells were differentiated using 0.5% horse serum (Sigma)-containing DMEM media (differentiation media) continuing for 7 days with daily replacement of fresh differentiation media, as previously described (Misu et al, Cell Metabolism 12, 483-495, 2010). At day 7 post-differentiation, differentiated C2C12 cells were rinsed with PBS twice and pretreated without or with 0.006% DMSO (Compound #43 solvent) or Compound #43 (300 or 600 ppb) in serum-free glucose-free DMEM media overnight. Then these cells were washed once with PBS, and then treated without (basal) or with insulin (200 nM), Compound #43 (300 and 600 ppb), or both insulin and Compound #43 in glucose/phenol red-free DMEM media at 37° C. for 1.5 hr. After treatment, media was removed and cells were washed once with PBS and incubated with 1 mM 2-deoxyglucose (2DG) at room temperature for 30 min. […] Luminescent signals were recorded using a Bio-Tek luminometer.

Take `C[Se]C[C@H]1O[C@@H](n2cnc3c(N)ncnc32)C(OC(C)=O)C1OC(C)=O` (some centres unmarked) [Compound #43, Adenosine, 5′-Se-methyl-5′-selino-, 2′,3′-diacetate]: the “increase in glucose uptake” value (co-treatment insulin 200 nM and Compound #43 300 ppb) turned out to be 63%. Besides, the “increase of glucose uptake” value (co-treatment insulin 200 nM and Compound #43 600 ppb) is 79%.
